Laboratory results published in ChEMBL document CHEMBL2203081 (Bioorg Med Chem Lett, 2012).
Active and inactive are the calls of the source.

Columns and labels:
[1] = molecular target: Leucine-rich repeat serine/threonine-protein kinase 2 (Homo sapiens) (UniProt Q5S007); conditions: 0.03 to 3 uM
Description: Inhibition of LRRK2 in human lymphoblastoid cells assessed as inhibition of Ser910 autophosphorylation at 0.03 to 3 uM after 90 mins by immunoblot method

[2] = molecular target: Leucine-rich repeat serine/threonine-protein kinase 2 (Homo sapiens) (UniProt Q5S007); conditions: HEK293, 0.03 to 3 uM
Description: Inhibition of GFP-tagged LRRK2 expressed in HEK293 cells assessed as inhibition of Ser935 autophosphorylation at 0.03 to 3 uM after 90 mins by immunoblotting method

[3] = molecular target: Leucine-rich repeat serine/threonine-protein kinase 2 (Homo sapiens) (UniProt Q5S007); conditions: HEK293, 0.03 to 3 uM; remark: listed apart in the source
Description: Inhibition of GFP-tagged LRRK2 expressed in HEK293 cells assessed as inhibition of Ser910 autophosphorylation at 0.03 to 3 uM after 90 mins by immunoblotting method

[4] = molecular target: Leucine-rich repeat serine/threonine-protein kinase 2 (Homo sapiens) (UniProt Q5S007); conditions: 0.03 to 3 uM; remark: listed apart in the source
Description: Inhibition of LRRK2 in human lymphoblastoid cells assessed as inhibition of Ser935 autophosphorylation at 0.03 to 3 uM after 90 mins by immunoblot method

Measured: inhibition

Leucine-rich repeat serine/threonine-protein kinase 2 (Homo sapiens), sequence (Q5S007 whole entry): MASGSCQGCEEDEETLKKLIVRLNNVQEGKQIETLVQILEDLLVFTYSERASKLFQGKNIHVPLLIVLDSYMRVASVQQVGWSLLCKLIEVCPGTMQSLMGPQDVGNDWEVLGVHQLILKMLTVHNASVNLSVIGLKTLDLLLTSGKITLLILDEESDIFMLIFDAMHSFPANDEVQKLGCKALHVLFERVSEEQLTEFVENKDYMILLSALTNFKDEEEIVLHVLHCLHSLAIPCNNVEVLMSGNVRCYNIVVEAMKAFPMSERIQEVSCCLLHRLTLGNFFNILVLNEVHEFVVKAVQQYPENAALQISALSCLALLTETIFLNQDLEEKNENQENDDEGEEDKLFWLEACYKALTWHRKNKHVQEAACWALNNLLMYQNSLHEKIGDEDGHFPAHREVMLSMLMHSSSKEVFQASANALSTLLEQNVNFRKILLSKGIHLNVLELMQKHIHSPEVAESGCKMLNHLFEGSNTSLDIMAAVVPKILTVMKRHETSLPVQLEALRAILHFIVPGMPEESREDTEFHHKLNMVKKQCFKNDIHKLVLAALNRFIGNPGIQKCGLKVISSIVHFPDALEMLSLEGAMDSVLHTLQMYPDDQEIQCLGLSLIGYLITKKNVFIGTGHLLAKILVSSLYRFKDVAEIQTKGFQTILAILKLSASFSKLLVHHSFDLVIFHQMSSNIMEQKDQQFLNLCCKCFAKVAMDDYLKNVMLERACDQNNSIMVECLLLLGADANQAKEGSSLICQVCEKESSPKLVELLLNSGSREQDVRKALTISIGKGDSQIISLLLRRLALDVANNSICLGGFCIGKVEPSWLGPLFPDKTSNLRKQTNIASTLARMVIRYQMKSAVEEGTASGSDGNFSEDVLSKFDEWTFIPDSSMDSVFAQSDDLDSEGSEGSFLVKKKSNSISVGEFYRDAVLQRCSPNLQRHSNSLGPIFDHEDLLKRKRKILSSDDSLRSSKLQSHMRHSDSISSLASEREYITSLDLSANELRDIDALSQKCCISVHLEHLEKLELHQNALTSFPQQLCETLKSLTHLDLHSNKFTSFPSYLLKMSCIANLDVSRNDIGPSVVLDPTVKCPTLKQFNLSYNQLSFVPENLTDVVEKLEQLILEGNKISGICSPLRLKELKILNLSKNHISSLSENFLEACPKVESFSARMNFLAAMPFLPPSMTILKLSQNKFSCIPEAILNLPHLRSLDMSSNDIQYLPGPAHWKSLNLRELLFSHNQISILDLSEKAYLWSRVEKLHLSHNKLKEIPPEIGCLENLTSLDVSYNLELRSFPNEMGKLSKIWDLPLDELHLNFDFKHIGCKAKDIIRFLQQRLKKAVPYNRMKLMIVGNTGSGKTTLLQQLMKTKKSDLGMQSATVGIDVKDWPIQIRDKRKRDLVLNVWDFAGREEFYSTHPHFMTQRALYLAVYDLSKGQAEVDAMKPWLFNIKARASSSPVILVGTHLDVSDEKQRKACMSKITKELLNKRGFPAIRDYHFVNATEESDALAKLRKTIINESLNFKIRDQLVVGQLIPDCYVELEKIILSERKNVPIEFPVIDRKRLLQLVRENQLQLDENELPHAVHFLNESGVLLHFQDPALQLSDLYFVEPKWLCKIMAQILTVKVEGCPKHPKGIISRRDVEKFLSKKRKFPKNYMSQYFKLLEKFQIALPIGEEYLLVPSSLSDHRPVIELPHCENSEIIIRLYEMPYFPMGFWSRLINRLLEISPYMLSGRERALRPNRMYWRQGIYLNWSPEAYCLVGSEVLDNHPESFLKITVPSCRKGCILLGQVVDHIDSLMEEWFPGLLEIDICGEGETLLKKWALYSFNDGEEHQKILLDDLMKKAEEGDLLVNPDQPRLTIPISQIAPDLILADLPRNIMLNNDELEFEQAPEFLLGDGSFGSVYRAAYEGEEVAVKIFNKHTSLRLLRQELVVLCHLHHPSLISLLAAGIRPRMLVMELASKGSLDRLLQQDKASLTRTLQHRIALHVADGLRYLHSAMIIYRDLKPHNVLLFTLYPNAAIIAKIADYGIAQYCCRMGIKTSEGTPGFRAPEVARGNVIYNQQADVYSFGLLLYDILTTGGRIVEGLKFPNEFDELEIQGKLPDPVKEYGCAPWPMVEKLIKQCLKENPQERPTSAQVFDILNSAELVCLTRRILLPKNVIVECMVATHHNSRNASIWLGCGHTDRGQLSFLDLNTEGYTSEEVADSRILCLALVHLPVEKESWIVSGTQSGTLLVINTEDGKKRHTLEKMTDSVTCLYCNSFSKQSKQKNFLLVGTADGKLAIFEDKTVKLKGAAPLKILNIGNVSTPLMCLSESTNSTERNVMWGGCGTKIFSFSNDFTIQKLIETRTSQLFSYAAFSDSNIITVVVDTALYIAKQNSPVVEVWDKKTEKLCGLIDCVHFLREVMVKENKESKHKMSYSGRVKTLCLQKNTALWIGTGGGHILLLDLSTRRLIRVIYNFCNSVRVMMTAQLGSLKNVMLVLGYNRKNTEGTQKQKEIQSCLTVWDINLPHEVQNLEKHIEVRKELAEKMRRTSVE

COc1cc(C(=O)N2CCC(N3CCN(C)CC3)CC2)ccc1Nc1ncc2c(n1)N(C)c1ccccc1C(=O)N2C
active: all assays above
